From the supplement of paper PMC10307832

Tests used:
Experiment in all cases: relative viability (nuclei count vs DMSO), 5 days (fraction); higher = more cells survive
Ponatinib + Phenformin = compound: Cc1ccc(C(=O)Nc2ccc(CN3CCN(C)CC3)c(C(F)(F)F)c2)cc1C#Cc1cnc2cccnn12 [Ponatinib] + N=C(N)NC(=N)NCCc1ccccc1 [Phenformin] (partner 250 µM)
In short: (§1)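 Relative viability equals treated-well nuclei counts divided by vehicle-well nuclei counts. Counts came from 4× images of lung cancer cell lines grown in 1536-well plates for 5 days after pin-tool dosing on the day after seeding. Dosing used one drug alone or a fixed anchor-drug dose plus five library-drug doses (not always all listed) in √10 steps, and values are medians of duplicate plates.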

Ponatinib + Trametinib = compound: Cc1ccc(C(=O)Nc2ccc(CN3CCN(C)CC3)c(C(F)(F)F)c2)cc1C#Cc1cnc2cccnn12 [Ponatinib] + CC(=O)Nc1cccc(-n2c(=O)n(C3CC3)c(=O)c3c(Nc4ccc(I)cc4F)n(C)c(=O)c(C)c32)c1 [Trametinib] (partner 0.02 µM)
In short: as §1

Pazopanib + Navitoclax = compound: Cc1ccc(Nc2nccc(N(C)c3ccc4c(C)n(C)nc4c3)n2)cc1S(N)(=O)=O [Pazopanib] + CC1(C)CCC(c2ccc(Cl)cc2)=C(CN2CCN(c3ccc(C(=O)NS(=O)(=O)c4ccc(N[C@H](CCN5CCOCC5)CSc5ccccc5)c(S(=O)(=O)C(F)(F)F)c4)cc3)CC2)C1 [Navitoclax] (partner 0.5 µM)
In short: as §1

Ponatinib + Decitabine = compound: Cc1ccc(C(=O)Nc2ccc(CN3CCN(C)CC3)c(C(F)(F)F)c2)cc1C#Cc1cnc2cccnn12 [Ponatinib] + Nc1ncn([C@H]2C[C@H](O)[C@@H](CO)O2)c(=O)n1 [Decitabine] (partner 2 µM)
In short: as §1

Cell Line	relative viability (Ponatinib + Phenformin; first compound 0.002 µM)	relative viability (Ponatinib + Phenformin; first compound 0.006325 µM)	relative viability (Ponatinib + Phenformin; first compound 0.06325 µM)	relative viability (Ponatinib + Phenformin; first compound 0.2 µM)	relative viability (Ponatinib + Trametinib; first compound 0.002 µM)	relative viability (Ponatinib + Trametinib; first compound 0.006325 µM)	relative viability (Ponatinib + Trametinib; first compound 0.06325 µM)	relative viability (Ponatinib + Trametinib; first compound 0.2 µM)	relative viability (Pazopanib + Navitoclax; first compound 0.03162 µM)	relative viability (Pazopanib + Navitoclax; first compound 0.1 µM)	relative viability (Pazopanib + Navitoclax; first compound 0.3162 µM)	relative viability (Pazopanib + Navitoclax; first compound 1 µM)	relative viability (Ponatinib + Decitabine; first compound 0.002 µM)	relative viability (Ponatinib + Decitabine; first compound 0.006325 µM)	relative viability (Ponatinib + Decitabine; first compound 0.06325 µM)	relative viability (Ponatinib + Decitabine; first compound 0.2 µM)	relative viability (Pazopanib + Navitoclax; first compound 0.01 µM)
NCI-H1355	0.44	0.467	0.491	0.452	0.378	0.429	0.464	0.47	0.899	1.09	1.07	0.979	0.335	0.355	0.399	0.346	
HOP-62	0.602	0.635	0.633	0.624	0.417	0.403	0.374	0.338	1.08	1.01	1.03	0.944	0.213	0.168	0.21	0.183	1.13
NCI-H2085	0.649	0.708	0.682	0.641	0.482	0.557	0.675	0.568	1.22	1.26	1.15	1.31	0.541	0.58	0.613	0.565	1.18
